This note sets out measurements from US10385113B2, “Engineered FGF compositions and methods of use thereof” (THE BOARD OF TRUSTEES OF THE UNIVERSITY OF ARKANSAS, priority 2016, dated 2019).

In experiment [1] the target is T1, human FGF-1 (hFGF-1) mutant R136E, SEQ ID NO: 4 (Homo sapiens, UniProt P05230, R137E).
T1 construct: made in house
The experiment is described as follows: Isothermal titration calorimetry (ITC) of FGF-1 mutant R136E with SOS. The following applies: 10 mM phosphate, 100 mM NaCl, 50 mM ammonium sulfate, pH 6.5, 25° C., FIG. 10C, read-out: dissociation constant (Kd). In kind it is binding. On the procedure:
(§1) For WT hFGF-1, and mutant proteins were in the cell and at a concentration of 0.05 mM in a buffer of 10 mM phosphate, 100 mM NaCl, 50 mM ammonium sulfate, pH 6.5. […] The data was analyzed using Origin scientific plotting software.
(§2) ITC is a method used to directly evaluate the affinity and enthalpy of binding reactions.

Experiment [2] concerns the target T2, human FGF-1 (hFGF-1), wild type (wtFGF-1), SEQ ID NO: 2 (Homo sapiens, UniProt P05230).
T2 construct: made in house
The experiment is described as follows: Isothermal titration calorimetry (ITC) of wild-type FGF-1 with SOS. The class given is binding. Conditions: FIG. 10A. On the procedure: as §1, §2

pKd: −log10 of the molar value.

T2 sequence (P05230 16-155): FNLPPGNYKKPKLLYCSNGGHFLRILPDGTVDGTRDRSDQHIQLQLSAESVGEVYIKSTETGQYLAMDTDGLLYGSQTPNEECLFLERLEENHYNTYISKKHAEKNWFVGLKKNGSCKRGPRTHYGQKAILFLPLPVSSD
T1 sequence (P05230 16-155 R137E): as the sequence (P05230 16-155) above, with R122E counted along it

Regarding `O=S(=O)(O)OC[C@H]1O[C@@](COS(=O)(=O)O)(O[C@H]2O[C@H](COS(=O)(=O)O)[C@@H](OS(=O)(=O)O)[C@H](OS(=O)(=O)O)[C@H]2OS(=O)(=O)O)[C@@H](OS(=O)(=O)O)[C@@H]1OS(=O)(=O)O` [SOS, sucrose octasulfate], the pKd in experiment [1] was 4.14; in experiment [2] (10 mM phosphate, 100 mM NaCl, 50 mM ammonium sulfate, pH 6.5, 25° C., read-out: dissociation constant (Kd)) it was 5.59. Moreover, the “affinity to SOS (binding isotherm)” value in experiment [2] (compared with R136E, result in words) is “strong affinity”.
